{"source": "patent US11572590B2", "about": "“Methods for evaluating tumor cell spheroids using 3D microfluidic cell culture device” (Dana-Farber Cancer Institute, Inc., priority 2017, dated 2023)", "assay_in_all_cases": "SelectScreen Kinase Profiling, single point inhibition and IC50 for off-target kinases", "assay_type_in_all_cases": "biochemical", "key": {"off-target kinases [1]": {"molecular_target": "T1, off-target kinases (Homo sapiens, UniProt Q9NR20)", "T1 sequence (Q9NR20 1-520)": "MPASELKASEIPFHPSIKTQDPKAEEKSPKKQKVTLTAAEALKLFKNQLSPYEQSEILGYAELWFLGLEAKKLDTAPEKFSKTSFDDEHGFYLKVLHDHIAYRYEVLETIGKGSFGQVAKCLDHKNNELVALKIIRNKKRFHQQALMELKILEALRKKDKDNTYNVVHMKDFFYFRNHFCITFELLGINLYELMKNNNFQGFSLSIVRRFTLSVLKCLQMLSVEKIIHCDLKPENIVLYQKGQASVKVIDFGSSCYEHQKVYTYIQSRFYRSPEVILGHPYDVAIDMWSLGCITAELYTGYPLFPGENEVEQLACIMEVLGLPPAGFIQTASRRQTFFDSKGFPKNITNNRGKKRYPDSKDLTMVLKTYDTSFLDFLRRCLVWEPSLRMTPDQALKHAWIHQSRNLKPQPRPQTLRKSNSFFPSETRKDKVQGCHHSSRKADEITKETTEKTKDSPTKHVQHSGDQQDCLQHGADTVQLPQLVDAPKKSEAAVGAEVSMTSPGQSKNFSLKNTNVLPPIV"}, "off-target kinases [2]": {"molecular_target": "T2, off-target kinases (Homo sapiens, UniProt P42681)", "T2 sequence (P42681 1-527)": "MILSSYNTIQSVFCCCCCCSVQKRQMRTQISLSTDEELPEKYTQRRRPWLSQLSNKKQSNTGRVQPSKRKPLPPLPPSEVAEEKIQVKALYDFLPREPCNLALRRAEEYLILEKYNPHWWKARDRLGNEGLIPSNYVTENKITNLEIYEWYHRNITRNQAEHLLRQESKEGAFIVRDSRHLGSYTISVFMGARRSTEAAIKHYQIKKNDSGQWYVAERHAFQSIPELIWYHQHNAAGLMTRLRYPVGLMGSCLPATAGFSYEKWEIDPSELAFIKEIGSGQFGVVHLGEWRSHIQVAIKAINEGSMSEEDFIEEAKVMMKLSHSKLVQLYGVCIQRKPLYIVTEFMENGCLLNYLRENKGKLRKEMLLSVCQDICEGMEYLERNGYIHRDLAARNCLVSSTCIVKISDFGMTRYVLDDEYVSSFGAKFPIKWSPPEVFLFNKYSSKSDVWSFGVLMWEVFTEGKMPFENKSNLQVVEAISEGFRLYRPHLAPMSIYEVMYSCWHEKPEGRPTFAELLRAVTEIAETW", "conditions": "TXK, ZLYTE, ATP Km app"}, "off-target kinases [3]": {"molecular_target": "off-target kinases (Homo sapiens, UniProt Q5VT25)", "sequence (Q5VT25 whole entry)": "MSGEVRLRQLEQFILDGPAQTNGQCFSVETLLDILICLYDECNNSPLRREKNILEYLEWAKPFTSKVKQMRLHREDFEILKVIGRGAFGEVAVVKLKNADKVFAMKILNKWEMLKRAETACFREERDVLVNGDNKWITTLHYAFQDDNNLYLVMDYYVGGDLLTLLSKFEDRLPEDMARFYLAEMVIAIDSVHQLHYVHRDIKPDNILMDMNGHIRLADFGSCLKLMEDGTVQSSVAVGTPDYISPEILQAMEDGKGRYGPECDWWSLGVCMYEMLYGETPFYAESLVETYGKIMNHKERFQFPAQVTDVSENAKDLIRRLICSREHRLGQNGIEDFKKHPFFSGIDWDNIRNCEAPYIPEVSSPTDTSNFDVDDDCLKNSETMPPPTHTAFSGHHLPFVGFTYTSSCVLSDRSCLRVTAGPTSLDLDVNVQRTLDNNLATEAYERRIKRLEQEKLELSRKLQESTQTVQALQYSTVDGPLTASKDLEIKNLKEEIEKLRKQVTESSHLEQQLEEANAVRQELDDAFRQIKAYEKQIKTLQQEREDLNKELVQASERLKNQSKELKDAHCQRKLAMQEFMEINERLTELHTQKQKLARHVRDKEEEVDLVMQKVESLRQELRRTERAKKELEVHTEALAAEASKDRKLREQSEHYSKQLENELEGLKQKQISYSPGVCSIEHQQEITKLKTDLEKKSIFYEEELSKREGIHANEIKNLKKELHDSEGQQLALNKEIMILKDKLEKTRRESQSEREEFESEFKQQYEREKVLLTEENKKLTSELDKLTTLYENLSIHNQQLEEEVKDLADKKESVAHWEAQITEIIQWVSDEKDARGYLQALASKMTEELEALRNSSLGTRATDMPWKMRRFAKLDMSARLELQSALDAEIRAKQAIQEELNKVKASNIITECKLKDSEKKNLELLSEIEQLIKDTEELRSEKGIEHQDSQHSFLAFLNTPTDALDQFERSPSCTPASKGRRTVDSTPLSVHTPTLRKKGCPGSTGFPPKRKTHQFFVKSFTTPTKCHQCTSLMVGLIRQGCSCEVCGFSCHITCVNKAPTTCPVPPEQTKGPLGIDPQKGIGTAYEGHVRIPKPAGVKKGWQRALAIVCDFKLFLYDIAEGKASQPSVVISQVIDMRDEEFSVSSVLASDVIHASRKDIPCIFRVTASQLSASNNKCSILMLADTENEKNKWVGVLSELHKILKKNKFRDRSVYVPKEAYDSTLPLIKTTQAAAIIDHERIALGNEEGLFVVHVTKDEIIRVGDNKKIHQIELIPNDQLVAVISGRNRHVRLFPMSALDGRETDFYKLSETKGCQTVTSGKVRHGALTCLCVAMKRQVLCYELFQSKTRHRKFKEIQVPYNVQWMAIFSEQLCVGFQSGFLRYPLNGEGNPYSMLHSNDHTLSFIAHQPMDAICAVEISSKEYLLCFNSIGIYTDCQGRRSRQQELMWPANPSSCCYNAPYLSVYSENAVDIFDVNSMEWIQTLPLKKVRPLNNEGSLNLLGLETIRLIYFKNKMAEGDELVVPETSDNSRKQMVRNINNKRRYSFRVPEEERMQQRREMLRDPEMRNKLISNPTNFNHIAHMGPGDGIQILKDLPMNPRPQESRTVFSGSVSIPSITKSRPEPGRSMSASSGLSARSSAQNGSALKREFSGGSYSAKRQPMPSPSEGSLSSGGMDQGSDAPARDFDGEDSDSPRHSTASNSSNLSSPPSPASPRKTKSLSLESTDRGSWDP", "conditions": "CDC42 BPA (MRCKA), ZLYTE, ATP Km app"}, "off-target kinases [4]": {"molecular_target": "off-target kinases (Homo sapiens, UniProt P08069)", "sequence (P08069 31-1367)": "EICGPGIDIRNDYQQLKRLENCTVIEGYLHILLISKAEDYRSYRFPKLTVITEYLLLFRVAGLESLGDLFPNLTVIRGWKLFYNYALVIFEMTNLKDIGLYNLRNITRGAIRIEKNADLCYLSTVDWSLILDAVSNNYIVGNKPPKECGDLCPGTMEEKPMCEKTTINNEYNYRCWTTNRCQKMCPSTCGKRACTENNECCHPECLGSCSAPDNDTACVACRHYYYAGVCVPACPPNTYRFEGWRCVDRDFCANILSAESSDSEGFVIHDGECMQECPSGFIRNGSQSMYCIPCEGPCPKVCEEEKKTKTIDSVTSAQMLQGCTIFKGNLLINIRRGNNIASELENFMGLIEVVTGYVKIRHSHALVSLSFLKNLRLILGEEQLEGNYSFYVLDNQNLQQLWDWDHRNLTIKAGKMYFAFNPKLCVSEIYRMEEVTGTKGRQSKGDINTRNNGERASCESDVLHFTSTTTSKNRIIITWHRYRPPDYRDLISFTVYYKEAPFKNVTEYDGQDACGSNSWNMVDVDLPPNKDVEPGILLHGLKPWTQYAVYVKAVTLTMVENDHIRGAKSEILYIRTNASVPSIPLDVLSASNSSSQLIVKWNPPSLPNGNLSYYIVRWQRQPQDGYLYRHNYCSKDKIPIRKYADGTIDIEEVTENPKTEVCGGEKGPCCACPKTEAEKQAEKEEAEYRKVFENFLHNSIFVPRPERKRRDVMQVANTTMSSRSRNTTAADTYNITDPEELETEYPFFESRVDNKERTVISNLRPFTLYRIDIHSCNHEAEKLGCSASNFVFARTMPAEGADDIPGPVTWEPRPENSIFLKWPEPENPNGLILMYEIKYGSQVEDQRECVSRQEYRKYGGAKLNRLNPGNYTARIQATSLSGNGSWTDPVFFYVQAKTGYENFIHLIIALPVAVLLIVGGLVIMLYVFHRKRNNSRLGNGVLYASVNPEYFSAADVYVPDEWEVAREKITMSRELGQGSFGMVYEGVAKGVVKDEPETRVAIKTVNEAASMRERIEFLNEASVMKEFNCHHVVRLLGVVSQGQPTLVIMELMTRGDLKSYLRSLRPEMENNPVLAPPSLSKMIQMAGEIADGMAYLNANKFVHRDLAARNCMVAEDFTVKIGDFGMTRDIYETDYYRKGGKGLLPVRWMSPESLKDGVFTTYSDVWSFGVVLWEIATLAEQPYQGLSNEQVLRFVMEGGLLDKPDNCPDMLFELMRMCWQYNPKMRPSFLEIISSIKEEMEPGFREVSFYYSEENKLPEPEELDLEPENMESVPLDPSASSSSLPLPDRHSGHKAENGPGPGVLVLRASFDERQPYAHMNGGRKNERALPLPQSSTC", "conditions": "IGF1R, ZLYTE, ATP Km app"}, "off-target kinases [5]": {"molecular_target": "off-target kinases (Homo sapiens, UniProt P16234)", "conditions": "PDGFRA (PDGFR alpha), ATP Km app, ZLYTE"}, "off-target kinases [6]": {"molecular_target": "off-target kinases (Homo sapiens, UniProt Q86Z02)", "sequence (Q86Z02 whole entry)": "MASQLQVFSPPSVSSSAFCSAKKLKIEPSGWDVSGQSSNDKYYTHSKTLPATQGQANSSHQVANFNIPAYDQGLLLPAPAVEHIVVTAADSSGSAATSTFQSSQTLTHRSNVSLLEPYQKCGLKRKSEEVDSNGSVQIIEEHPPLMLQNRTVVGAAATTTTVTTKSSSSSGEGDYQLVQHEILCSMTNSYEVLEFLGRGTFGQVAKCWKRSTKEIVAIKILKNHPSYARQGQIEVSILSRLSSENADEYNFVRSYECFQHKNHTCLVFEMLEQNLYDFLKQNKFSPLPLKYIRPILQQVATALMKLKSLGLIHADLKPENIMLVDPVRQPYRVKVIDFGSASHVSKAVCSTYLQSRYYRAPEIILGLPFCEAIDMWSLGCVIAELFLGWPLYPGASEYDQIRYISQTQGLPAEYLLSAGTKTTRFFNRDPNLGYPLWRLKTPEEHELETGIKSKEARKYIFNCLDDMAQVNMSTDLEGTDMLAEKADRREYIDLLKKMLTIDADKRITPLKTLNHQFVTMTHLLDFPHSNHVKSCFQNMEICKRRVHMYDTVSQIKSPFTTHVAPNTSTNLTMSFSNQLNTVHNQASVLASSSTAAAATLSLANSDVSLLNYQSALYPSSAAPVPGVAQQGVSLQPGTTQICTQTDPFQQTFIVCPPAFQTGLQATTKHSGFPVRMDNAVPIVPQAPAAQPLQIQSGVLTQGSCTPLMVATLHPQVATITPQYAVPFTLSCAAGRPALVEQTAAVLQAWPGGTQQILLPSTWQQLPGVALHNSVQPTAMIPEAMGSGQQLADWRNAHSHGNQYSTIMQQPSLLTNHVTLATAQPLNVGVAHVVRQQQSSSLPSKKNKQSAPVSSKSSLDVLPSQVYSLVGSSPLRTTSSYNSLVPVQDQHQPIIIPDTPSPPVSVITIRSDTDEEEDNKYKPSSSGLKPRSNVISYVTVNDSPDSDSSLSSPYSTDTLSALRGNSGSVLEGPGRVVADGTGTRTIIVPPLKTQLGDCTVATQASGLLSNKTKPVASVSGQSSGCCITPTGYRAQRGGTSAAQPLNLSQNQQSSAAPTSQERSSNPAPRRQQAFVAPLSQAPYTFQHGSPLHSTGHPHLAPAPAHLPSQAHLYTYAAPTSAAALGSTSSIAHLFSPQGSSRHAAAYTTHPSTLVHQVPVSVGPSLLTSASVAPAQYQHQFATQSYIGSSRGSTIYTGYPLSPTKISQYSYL", "conditions": "HIPK1 (Myak), ZLYTE, ATP Km app"}}, "note": "Where two headings read alike, the source gives them in different places.", "data": [{"smiles": "N#Cc1cc(-c2ncnc(Nc3ccc(N4CCN(C5COC5)CC4)cc3)n2)ccc1OC1CCOCC1", "note": "[Compound 1, 5-(4-((4-(4-(oxetan-3-yl)piperazin-1-yl)phenyl)amino)-1,3,5-triazin-2-yl)-2-((tetrahydro-2H-pyran-4-yl)oxy)benzonitrile]", "values": [{"measurement": "inhibition", "setting": "off-target kinases [1]; read-out: % Inhibition 1", "value": -2, "unit": "%"}, {"measurement": "inhibition", "setting": "off-target kinases [1]; read-out: % Inhibition 2", "value": 0, "unit": "%"}, {"measurement": "inhibition", "setting": "off-target kinases [1]; read-out: % Inhibition Avg", "value": -1, "unit": "%"}, {"measurement": "inhibition", "setting": "off-target kinases [2]; read-out: % Inhibition 1", "value": 27, "unit": "%"}, {"measurement": "inhibition", "setting": "off-target kinases [2]; read-out: % Inhibition 2", "value": 36, "unit": "%"}, {"measurement": "inhibition", "setting": "off-target kinases [2]; read-out: % Inhibition Avg", "value": 31, "unit": "%"}, {"measurement": "inhibition", "setting": "off-target kinases [3]; read-out: % Inhibition 1", "value": 4, "unit": "%"}, {"measurement": "inhibition", "setting": "off-target kinases [3]; read-out: % Inhibition 2", "value": 4, "unit": "%"}, {"measurement": "inhibition", "setting": "off-target kinases [3]; read-out: % Inhibition Avg", "value": 4, "unit": "%"}, {"measurement": "inhibition", "setting": "off-target kinases [4]; read-out: % Inhibition 1", "value": 1, "unit": "%"}, {"measurement": "inhibition", "setting": "off-target kinases [4]; read-out: % Inhibition 2", "value": 2, "unit": "%"}, {"measurement": "inhibition", "setting": "off-target kinases [4]; read-out: % Inhibition Avg", "value": 1, "unit": "%"}, {"measurement": "inhibition", "setting": "off-target kinases [5]; read-out: % Inhibition 1", "value": 43, "unit": "%"}, {"measurement": "inhibition", "setting": "off-target kinases [5]; read-out: % Inhibition 2", "value": 43, "unit": "%"}, {"measurement": "inhibition", "setting": "off-target kinases [5]; read-out: % Inhibition Avg", "value": 43, "unit": "%"}, {"measurement": "inhibition", "setting": "off-target kinases [6]; read-out: % Inhibition 1", "value": 11, "unit": "%"}, {"measurement": "inhibition", "setting": "off-target kinases [6]; read-out: % Inhibition 2", "value": 13, "unit": "%"}, {"measurement": "inhibition", "setting": "off-target kinases [6]; read-out: % Inhibition Avg", "value": 12, "unit": "%"}]}]}
